Activity calls are given as the source filed them. The calls are words filed in the database; no cut-off is given here.
Tests used:
SGC-7901 = test: Cytotoxicity against human SGC7901 cells after 24 hrs by MTT assay; format: functional, cell-based; details: SGC-7901, 24 h
NB-4 = test: Induction of mitochondrial membrane potential loss in human NB4 cells at 0.6 uM after 1 hr by JC1 staining based flow cytometry (reference value: 27.7%); format: functional
Rattus norvegicus [1] = organism: Rattus norvegicus; test: Induction of mitochondrial swelling in isolated Wistar rat mitochondria at 30 uM in presence of cyclosporin-A; format: functional
Rattus norvegicus [2] = organism: Rattus norvegicus; test: Induction of mitochondrial membrane permeability in isolated Wistar rat mitochondria at 50 uM for 30 mins by TEM analysis; format: functional

Structure (SMILES): O=C(CC[P+](c1ccccc1)(c1ccccc1)c1ccccc1)Nc1ccc([As]2SCCCS2)cc1.[Cl-]
- IC50 (SGC-7901): 4.63 µM
- Activity (NB-4): 40.9%
- Activity (Rattus norvegicus [1]): inactive
- Activity (Rattus norvegicus [2]): Active

From ChEMBL document CHEMBL4330144, “A mitochondria-targeted organic arsenical accelerates mitochondrial metabolic disorder and function injury” (Bioorg Med Chem, 2019)
